The first data set deals with HCV subgenomic replicon (LucNeo#2 replicon cells). Nature of the data set: Replicon assay, intracellular luciferase activity in LucNeo#2 replicon cells. The format is cell-based, Hepatitis C virus. The following applies: 3.3 μM, 72 hours, percentage of solvent-treated group. An excerpt: The inhibitory-effect on HCV replication and the cytotoxicity of a compound of formula (I) of the invention were examined by a replicon assay method using different HCV subgenomic replicon cells from Example 1, specifically LucNeo#2 replicon cells. The LucNeo#2 replicon cells are reporter cells created with the same concept as the luc-ubi-neo/ET replicon cells used in Test Example 1, and are utilized for analysis of the RNA replication mechanism of HCV or anti-HCV drug evaluation, but the gene sequence differs from that of luc-ubi-neo/ET replicon cells (Biochem. Biophys. Res. Commun. 343 (2006) 879-884).
(§1) LucNeo#2 replicon cells cultured to confluency were recovered by trypsin treatment, and were spread on a collagen-coated plate at a density of 20,000 cells/mL. The cell culture was conducted in an incubator at 37° C., 5% CO2, with 10% FCS/DMEM (containing mixed solution of penicillin-streptomycin, G418 and a non-essential amino acid). After 24 hours, the cells were rinsed and a compound of formula (I) was added as Test compound to final concentrations of 3.3 μM or 10 μM. At 72 hours after addition of the Test compound, the cells of one plate were rinsed, the cells were lysed with M-PER, and the intracellular luciferase activity was measured using a Promega kit. An Alamar Blue solution was also added to cells cultured under the same conditions, and the cytotoxicity was examined.
(§2) The intracellular luciferase activity and the Alamar Blue signal for cytotoxicity at 72 hours after Test compound addition were shown in Table 3 as a percentage with respect to the solvent-treated group.
Regarding `COc1cc(/C=C2\CCCN([C@@H](CO)c3ccc(F)cc3)C2=O)ccc1-n1cnc(C)c1` [Test compound C, (E)-1-[(1R)-1-(4-fluorophenyl)-2-hydroxyethyl]-3-[3-methoxy-4-(4-methyl-1H-imidazol-1-yl)benzylidene]piperidin-2-one], the Luciferase activity stood at 93.50%.

The data set is the same for the next values; noted with them: 10 μM, 72 hours, percentage of solvent-treated group.
For `COc1cc(/C=C2\CCCN([C@@H](CO)c3ccc(F)cc3)C2=O)ccc1-n1cnc(C)c1` [Test compound C, (E)-1-[(1R)-1-(4-fluorophenyl)-2-hydroxyethyl]-3-[3-methoxy-4-(4-methyl-1H-imidazol-1-yl)benzylidene]piperidin-2-one], the Luciferase activity was 55.00%.

Still in this data set, the particulars now being: LucNeo#2 replicon cells, 3.3 and 10 μM.
For the compound `COc1cc(/C=C2\CCCN([C@@H](CO)c3ccc(F)cc3)C2=O)ccc1-n1cnc(C)c1` [Test compound C, (E)-1-[(1R)-1-(4-fluorophenyl)-2-hydroxyethyl]-3-[3-methoxy-4-(4-methyl-1H-imidazol-1-yl)benzylidene]piperidin-2-one], the “HCV replication inhibitory-activity (in words)” value was “potent HCV replication inhibitory-activity by reducing the luciferase activity in a dose-dependent manner”.

A further data set deals with LucNeo#2 replicon cells. Nature of the data set: Cytotoxicity, Alamar Blue in LucNeo#2 replicon cells. The settings on record: 3.3 μM, 72 hours, percentage of solvent-treated group. The format is cell-based. How it is done: as §1, §2
Consider `COc1cc(/C=C2\CCCN([C@@H](CO)c3ccc(F)cc3)C2=O)ccc1-n1cnc(C)c1` [Test compound C, (E)-1-[(1R)-1-(4-fluorophenyl)-2-hydroxyethyl]-3-[3-methoxy-4-(4-methyl-1H-imidazol-1-yl)benzylidene]piperidin-2-one], for which the “Cytotoxicity (Alamar Blue signal)” value stood at 101.00%.

The data set is the same for the next values; noted with them: 10 μM, 72 hours, percentage of solvent-treated group.
As to `COc1cc(/C=C2\CCCN([C@@H](CO)c3ccc(F)cc3)C2=O)ccc1-n1cnc(C)c1` [Test compound C, (E)-1-[(1R)-1-(4-fluorophenyl)-2-hydroxyethyl]-3-[3-methoxy-4-(4-methyl-1H-imidazol-1-yl)benzylidene]piperidin-2-one], the “Cytotoxicity (Alamar Blue signal)” value worked out at 102.00%.

In a further data set the test system is HCV subgenomic replicon (LucNeo#2 replicon cells). Nature of the data set: HCV replication inhibition in LucNeo#2 replicon cells, luciferase corrected by cell number (Alamar Blue). The format is cell-based. The settings on record: Hepatitis C virus, 96 h, read-out: Inhibition (%) at 1 uM. How it is done:
LucNeo#2 replicon cells, which were the HCV subgenomic replicon cells used in Test Example 2, were used to examine HCV replication inhibitory-activity, from which signals were corrected by using cell number.
LucNeo#2 replicon cells cultured to confluency were recovered by trypsin treatment, and were spread on a collagen-coated plate at a density of 1000 cells/well. The cell culture was conducted in an incubator at 37° C., 5% CO2, with 10% FBS/DMEM (containing mixed solution of penicillin-streptomycin and a non-essential amino acid). On the following day or the evening after confirmation of cell adhesion, a compound of formula (I) as the Test compound was added to final concentration of 1.0 to 1.3 μM. At 4 days after the Test compound addition, Alamar Blue diluted 5-fold with PBS(−) was added in an amount of 1/10 for measurement of the fluorescence, to determine the cell count. After the Alamar Blue measurement, the luminescence from intracellular luciferase activity was determined by adding substrate solution in an amount of 5/11 using a Promega kit.
The Alamar Blue activity and luciferase activity were determined by subtracting the values measured for wells without cells. Next, the luciferase activity value×1000 was divided by the value from Alamar Blue measurement, then, the total activity was defined as the value calculated without the Test compound, and the percentages of inhibition by the Test compound was calculated in respect to total activity and listed in Table 4.
Regarding `COc1cc(/C=C2\CCCN([C@@H](C)c3ccc(F)cc3)C2=O)ccc1-n1cnc(C)c1` [compound 53], the inhibition at 1 µM was 30.9%.

The data set is the same for the next values; noted with them: Hepatitis C virus, 96 h; 1 uM, 4 days, luciferase activity per Alamar Blue value; read-out: Inhibition (%) at 1 uM.
In the case of `COc1cc(/C=C/C(=O)NCc2ccc(Cl)cc2)ccc1-n1ccnc1` [compound 13], the inhibition at 1 µM was 65.9%.

Take `CC(O)c1cc(/C=C/C(=O)NC2CCc3ccccc32)ccc1-n1ccnc1` (stereo not shown) [compound 14]: the inhibition at 1 µM came out at 73.4%.

In the case of `O=Cc1cc(/C=C/C(=O)NC2CCc3ccccc32)ccc1-n1ccnc1` (stereo not shown) [compound 15], the inhibition at 1 µM was 73.3%.

In the case of `COc1cc(/C=C/C(=O)NCC2CCCCC2)ccc1-n1ccnc1` [compound 16], the inhibition at 1 µM amounted to 71.2%.

Turning to `COc1cc(/C=C/C(=O)NC2(c3ccccc3)CC2)ccc1-n1ccnc1` [compound 17], the inhibition at 1 µM worked out at 87.7%.

Take `Cc1cn(-c2ccc(/C=C/C(=O)NC3CCc4ccccc43)cc2Br)cn1` (stereo not shown) [compound 18]: the inhibition at 1 µM amounted to 75.3%.

Take `Cc1cn(-c2ccc(/C=C/C(=O)NC3CCc4ccccc43)cc2Cl)cn1` (stereo not shown) [compound 19]: the inhibition at 1 µM was 75.4%.

Regarding `O=C(/C=C/c1ccc(-n2ccnc2)c(C(F)(F)F)c1)NC1CCc2ccccc21` (stereo not shown) [compound 20], the inhibition at 1 µM came to 76.7%.

On to `CC(=O)c1cc(/C=C/C(=O)NC2CCc3ccccc32)ccc1-n1ccnc1` (stereo not shown) [compound 21], for which the inhibition at 1 µM turned out to be 81.9%.

For `COc1cc(/C=C/C(=O)N(C)Cc2ccccc2)ccc1-n1ccnc1` [compound 22], the inhibition at 1 µM came out at 66.3%.

On to `COc1cc(/C=C/C(=O)NC(Cc2ccccc2)c2ccccc2)ccc1-n1ccnc1` (stereo not shown) [compound 23], for which the inhibition at 1 µM was 71.6%.

With `Cc1cncn1-c1ccc(/C=C/C(=O)NC2CCc3ccccc32)cc1C#N` (stereo not shown) [compound 25], the inhibition at 1 µM came to 83.5%.

For the compound `O=C(/C=C/c1ccc(-n2ccnc2)c(Cl)c1)NC1CCc2ccccc21` (stereo not shown) [compound 26], the inhibition at 1 µM stood at 75.5%.

In the case of `COc1cc(/C=C/C(=O)NC2Cc3ccccc3C2)ccc1-n1ccnc1` [compound 27], the inhibition at 1 µM was determined as 69%.

As to `COc1cc(/C=C/C(=O)NCc2ccccc2)ccc1-n1ccnc1` [compound 28], the inhibition at 1 µM came to 70.5%.

For the compound `COc1cc(/C=C/C(=O)NCc2cccc(F)c2)ccc1-n1ccnc1` [compound 29], the inhibition at 1 µM is 62.8%.

With `COc1cc(/C=C\C(=O)NC2CCc3ccccc32)ccc1-n1ccnc1` (stereo not shown) [compound 30], the inhibition at 1 µM came to 66.4%.

Turning to `Cc1cc(/C=C/C(=O)NC2CCc3ccccc32)ccc1-n1ccnc1` (stereo not shown) [compound 31], the inhibition at 1 µM worked out at 71%.

Regarding `COc1cc(/C=C/C(=O)NC2CCc3ccccc32)ccc1-n1cncc1Cl` (stereo not shown) [compound 32], the inhibition at 1 µM was found to be 71.8%.

For `COc1cc(/C=C/C(=O)NC2CCCc3ccccc32)ccc1-n1ccnc1` (stereo not shown) [compound 33], the inhibition at 1 µM was found to be 86.8%.

For the compound `CS(=O)(=O)c1cc(/C=C/C(=O)NC2CCc3ccccc32)ccc1-n1ccnc1` (stereo not shown) [compound 34], the inhibition at 1 µM stood at 70.2%.

Take `Cc1ncn(-c2ccc(/C=C/C(=O)NC3CCc4ccccc43)cc2F)c1C` (stereo not shown) [compound 35]: the inhibition at 1 µM worked out at 77.2%.

Consider `CCC(NC(=O)/C=C/c1ccc(-n2cnc(C)c2)c(OC)c1)c1cccnc1` (stereo not shown) [compound 36], for which the inhibition at 1 µM turned out to be 75.7%.

For `COc1cc(/C=C/C(=O)NCc2ccccc2C(F)(F)F)ccc1-n1ccnc1` [compound 37], the inhibition at 1 µM is 77.1%.

For the compound `COc1ccccc1CNC(=O)/C=C/c1ccc(-n2ccnc2)c(OC)c1` [compound 38], the inhibition at 1 µM worked out at 63.7%.

With `COc1cc(/C=C/C(=O)NCc2ccc(C(F)(F)F)cc2)ccc1-n1ccnc1` [compound 39], the inhibition at 1 µM was 53.2%.

In the case of `COc1ccc(CNC(=O)/C=C/c2ccc(-n3ccnc3)c(F)c2)cc1` [compound 40], the inhibition at 1 µM stood at 59.4%.

Consider `COc1cc(/C=C/C(=O)NCCc2cccc(Cl)c2)ccc1-n1ccnc1` [compound 41], for which the inhibition at 1 µM is 71.8%.

In the case of `COc1cc(/C=C/C(=O)NC(c2ccccc2)c2ccccc2)ccc1-n1ccnc1` [compound 42], the inhibition at 1 µM stood at 75.8%.

Regarding `COCc1cn(-c2ccc(/C=C/C(=O)NC3CCc4ccccc43)cc2F)cn1` (stereo not shown) [compound 43], the inhibition at 1 µM was determined as 55.8%.

Turning to `CC(C)Oc1cc(/C=C/C(=O)NC2CCc3ccccc32)ccc1-n1ccnc1` (stereo not shown) [compound 44], the inhibition at 1 µM turned out to be 64.6%.

With `COc1cc(/C=C/C(=O)NNCc2ccccc2)ccc1-n1ccnc1` [compound 45], the inhibition at 1 µM is 68.8%.

In the case of `COCc1cc(/C=C/C(=O)NC2CCc3ccccc32)ccc1-n1ccnc1` (stereo not shown) [compound 46], the inhibition at 1 µM worked out at 86.4%.

In the case of `Cc1cn(-c2ccc(/C=C/C(=O)NC3CCc4ccccc43)cc2OC2CCCC2)cn1` (stereo not shown) [compound 47], the inhibition at 1 µM stood at 63.8%.

`COc1cc(/C=C/C(=O)NCCc2ccc(Cl)cc2)ccc1-n1ccnc1` [compound 48]: the inhibition at 1 µM came to 61.3%.

In the case of `COc1cc(/C=C/C(=O)N(CCO)Cc2ccccc2)ccc1-n1cc(C)nc1C` [compound 49], the inhibition at 1 µM came out at 71.6%.

As for `COc1cc(/C=C/C(=O)N2CCC3(CC2)OCc2ccccc23)ccc1-n1cc(C)nc1C` [compound 50], the inhibition at 1 µM was 52.3%.

`COc1cc(/C=C/C(=O)N2C[C@H]2c2ccccc2)ccc1-n1cnc(C)c1` [compound 51]: the inhibition at 1 µM came to 62.2%.

As to `COc1cc(/C=C/C(=O)N2CCC(n3c(=O)[nH]c4ccccc43)CC2)ccc1-n1ccnc1` [compound 52], the inhibition at 1 µM came to 51.4%.

Turning to `COc1cc(/C=C2\CCCN([C@@H](CO)c3ccc(F)cc3)C2=O)ccc1-n1cnc(C)c1` [compound 54], the inhibition at 1 µM stood at 14.2%.

Consider `COc1cc(/C=C2\CC[C@H]3COC[C@@H](c4cc(F)c(F)c(F)c4)N3C2=O)ccc1-n1cnc(C)c1` [compound 55], for which the inhibition at 1 µM was 66.8%.

With `COc1cc(/C=C2\CCN([C@@H](C)c3ccc(F)cc3)C2=O)ccc1-n1cnc(C)c1` [compound 56], the inhibition at 1 µM was determined as 65.8%.

Regarding `COc1cc(C#CC(=O)NC(C)c2ccccc2)ccc1-n1cnc(C)c1` (stereo not shown) [compound 58], the inhibition at 1 µM was 64.6%.

On to `COc1cc(/C=C2\NC(=O)N(Cc3ccccc3)C2=O)ccc1-n1cnc(C)c1` [compound 59], for which the inhibition at 1 µM turned out to be 51.9%.

As to `COc1cc(/C=C2/C[C@H]3CCC[C@H](c4ccc(F)c(F)c4)N3C2=O)ccc1-n1cnc(C)c1` [compound 60], the inhibition at 1 µM is 50.5%.

For the compound `COc1cc(/C(F)=C(/C)C(=O)NC2CCc3ccccc32)ccc1-n1cnc(C)c1` (stereo not shown) [compound 61], the inhibition at 1 µM is 50.5%.

Turning to `COc1cc(/C=C2\NC(=S)N(Cc3ccccc3)C2=O)ccc1-n1cnc(C)c1` [compound 62], the inhibition at 1 µM is 68.2%.

As to `COc1cc(/C=C2\CCCN([C@H](C)c3ccc(C#N)s3)C2=O)ccc1-n1cnc(C)c1` [compound 63], the inhibition at 1 µM turned out to be 70.7%.

For the compound `C/C(=C\C(=O)NC1CCc2ccccc21)c1ccc(-n2ccnc2)c(F)c1` (stereo not shown) [compound 64], the inhibition at 1 µM was found to be 78%.

The record behind these values is patent US20130095068A1, “AGENT FOR TREATING HCV INFECTION” (priority 2010, published 2013).
